# ChEMBL document CHEMBL3612049, “Design, synthesis and molecular docking of salicylic acid derivatives containing metronidazole as a new class of antimicrobial agents” (Bioorg Med Chem, 2015)
# Tested on: Pseudomonas aeruginosa
# Assay: Antimicrobial activity against Pseudomonas aeruginosa ATCC 13525 after 18 hrs by broth microdilution method
# Type: functional
# Settings: ATCC 13525, 18 h
row,Compound,MIC
1,Cc1ncc([N+](=O)[O-])n1CCOC(=O)c1ccccc1OCc1ccccc1,50 µg/mL
2,Cc1ncc([N+](=O)[O-])n1CCOC(=O)c1ccccc1OCc1ccccc1F,50 µg/mL
3,Cc1ncc([N+](=O)[O-])n1CCOC(=O)c1ccccc1OCc1cccc(F)c1,50 µg/mL
4,Cc1ncc([N+](=O)[O-])n1CCOC(=O)c1ccccc1OCc1ccc(F)cc1,25 µg/mL
5,Cc1ncc([N+](=O)[O-])n1CCOC(=O)c1ccccc1OCc1ccccc1Cl,12.5 µg/mL
6,Cc1ncc([N+](=O)[O-])n1CCOC(=O)c1ccccc1OCc1cccc(Cl)c1,12.5 µg/mL
7,Cc1ncc([N+](=O)[O-])n1CCOC(=O)c1ccccc1OCc1ccc(Cl)cc1,12.5 µg/mL
8,Cc1ncc([N+](=O)[O-])n1CCOC(=O)c1ccccc1OCc1ccc(Br)cc1,12.5 µg/mL
9,Cc1ccc(COc2ccccc2C(=O)OCCn2c([N+](=O)[O-])cnc2C)cc1,12.5 µg/mL
10,Cc1cc(C)cc(COc2ccccc2C(=O)OCCn2c([N+](=O)[O-])cnc2C)c1,12.5 µg/mL
11,Cc1ncc([N+](=O)[O-])n1CCOC(=O)c1ccccc1OCc1ccc(C(C)C)cc1,6.25 µg/mL
12,COc1ccc(COc2ccccc2C(=O)OCCn2c([N+](=O)[O-])cnc2C)cc1,6.25 µg/mL

# Tested on: Staphylococcus aureus
# Assay: Antimicrobial activity against Staphylococcus aureus ATCC 6538 after 18 hrs by broth microdilution method
# Type: functional
# Settings: ATCC 6538, 18 h
row,Compound,MIC
1,Cc1ncc([N+](=O)[O-])n1CCOC(=O)c1ccccc1OCc1ccccc1,12.5 µg/mL
2,Cc1ncc([N+](=O)[O-])n1CCOC(=O)c1ccccc1OCc1ccccc1F,12.5 µg/mL
3,Cc1ncc([N+](=O)[O-])n1CCOC(=O)c1ccccc1OCc1cccc(F)c1,12.5 µg/mL
4,Cc1ncc([N+](=O)[O-])n1CCOC(=O)c1ccccc1OCc1ccc(F)cc1,12.5 µg/mL
5,Cc1ncc([N+](=O)[O-])n1CCOC(=O)c1ccccc1OCc1ccccc1Cl,6.25 µg/mL
6,Cc1ncc([N+](=O)[O-])n1CCOC(=O)c1ccccc1OCc1cccc(Cl)c1,6.25 µg/mL
7,Cc1ncc([N+](=O)[O-])n1CCOC(=O)c1ccccc1OCc1ccc(Cl)cc1,6.25 µg/mL
8,Cc1ncc([N+](=O)[O-])n1CCOC(=O)c1ccccc1OCc1ccc(Br)cc1,6.25 µg/mL
9,Cc1ccc(COc2ccccc2C(=O)OCCn2c([N+](=O)[O-])cnc2C)cc1,3.13 µg/mL
10,Cc1cc(C)cc(COc2ccccc2C(=O)OCCn2c([N+](=O)[O-])cnc2C)c1,3.13 µg/mL
11,Cc1ncc([N+](=O)[O-])n1CCOC(=O)c1ccccc1OCc1ccc(C(C)C)cc1,3.13 µg/mL
12,COc1ccc(COc2ccccc2C(=O)OCCn2c([N+](=O)[O-])cnc2C)cc1,1.57 µg/mL

# Tested on: Bacillus spizizenii
# Assay: Antimicrobial activity against Bacillus subtilis ATCC 6633 after 18 hrs by broth microdilution method
# Type: functional
# Settings: ATCC 6633, 18 h
row,Compound,MIC
1,Cc1ncc([N+](=O)[O-])n1CCOC(=O)c1ccccc1OCc1ccccc1,12.5 µg/mL
2,Cc1ncc([N+](=O)[O-])n1CCOC(=O)c1ccccc1OCc1ccccc1F,25 µg/mL
3,Cc1ncc([N+](=O)[O-])n1CCOC(=O)c1ccccc1OCc1cccc(F)c1,25 µg/mL
4,Cc1ncc([N+](=O)[O-])n1CCOC(=O)c1ccccc1OCc1ccc(F)cc1,12.5 µg/mL
5,Cc1ncc([N+](=O)[O-])n1CCOC(=O)c1ccccc1OCc1ccccc1Cl,6.25 µg/mL
6,Cc1ncc([N+](=O)[O-])n1CCOC(=O)c1ccccc1OCc1cccc(Cl)c1,6.25 µg/mL
7,Cc1ncc([N+](=O)[O-])n1CCOC(=O)c1ccccc1OCc1ccc(Cl)cc1,12.5 µg/mL
8,Cc1ncc([N+](=O)[O-])n1CCOC(=O)c1ccccc1OCc1ccc(Br)cc1,6.25 µg/mL
9,Cc1ccc(COc2ccccc2C(=O)OCCn2c([N+](=O)[O-])cnc2C)cc1,3.13 µg/mL
10,Cc1cc(C)cc(COc2ccccc2C(=O)OCCn2c([N+](=O)[O-])cnc2C)c1,1.57 µg/mL
11,Cc1ncc([N+](=O)[O-])n1CCOC(=O)c1ccccc1OCc1ccc(C(C)C)cc1,3.13 µg/mL
12,COc1ccc(COc2ccccc2C(=O)OCCn2c([N+](=O)[O-])cnc2C)cc1,0.78 µg/mL

# Tested on: not listed separately
# Assay: Inhibition of Staphylococcus aureus TyrRS expressed in Escherichia coli BL21 using L-[ring-3,5-3H]-tyrosine preincubated for 10 mins by liquid scintillation counting
# Settings: not given
row,Compound,IC50
1,Cc1ncc([N+](=O)[O-])n1CCOC(=O)c1ccccc1OCc1ccccc1,5.6 µM
2,Cc1ncc([N+](=O)[O-])n1CCOC(=O)c1ccccc1OCc1ccccc1F,6.7 µM
3,Cc1ncc([N+](=O)[O-])n1CCOC(=O)c1ccccc1OCc1cccc(F)c1,6.3 µM
4,Cc1ncc([N+](=O)[O-])n1CCOC(=O)c1ccccc1OCc1ccc(F)cc1,5.7 µM
5,Cc1ncc([N+](=O)[O-])n1CCOC(=O)c1ccccc1OCc1ccccc1Cl,4.7 µM
6,Cc1ncc([N+](=O)[O-])n1CCOC(=O)c1ccccc1OCc1cccc(Cl)c1,5 µM
7,Cc1ncc([N+](=O)[O-])n1CCOC(=O)c1ccccc1OCc1ccc(Cl)cc1,4.8 µM
8,Cc1ncc([N+](=O)[O-])n1CCOC(=O)c1ccccc1OCc1ccc(Br)cc1,4.9 µM
9,Cc1ccc(COc2ccccc2C(=O)OCCn2c([N+](=O)[O-])cnc2C)cc1,4.7 µM
10,Cc1cc(C)cc(COc2ccccc2C(=O)OCCn2c([N+](=O)[O-])cnc2C)c1,3 µM
11,Cc1ncc([N+](=O)[O-])n1CCOC(=O)c1ccccc1OCc1ccc(C(C)C)cc1,3.3 µM
12,COc1ccc(COc2ccccc2C(=O)OCCn2c([N+](=O)[O-])cnc2C)cc1,2.9 µM

# Tested on: Escherichia coli
# Assay: Antimicrobial activity against Escherichia coli ATCC 35218 after 18 hrs by broth microdilution method
# Type: functional
# Settings: ATCC 35218, 18 h
row,Compound,MIC
1,Cc1ncc([N+](=O)[O-])n1CCOC(=O)c1ccccc1OCc1ccccc1,25 µg/mL
2,Cc1ncc([N+](=O)[O-])n1CCOC(=O)c1ccccc1OCc1ccccc1F,50 µg/mL
3,Cc1ncc([N+](=O)[O-])n1CCOC(=O)c1ccccc1OCc1cccc(F)c1,50 µg/mL
4,Cc1ncc([N+](=O)[O-])n1CCOC(=O)c1ccccc1OCc1ccc(F)cc1,25 µg/mL
5,Cc1ncc([N+](=O)[O-])n1CCOC(=O)c1ccccc1OCc1ccccc1Cl,6.25 µg/mL
6,Cc1ncc([N+](=O)[O-])n1CCOC(=O)c1ccccc1OCc1cccc(Cl)c1,12.5 µg/mL
7,Cc1ncc([N+](=O)[O-])n1CCOC(=O)c1ccccc1OCc1ccc(Cl)cc1,25 µg/mL
8,Cc1ncc([N+](=O)[O-])n1CCOC(=O)c1ccccc1OCc1ccc(Br)cc1,12.5 µg/mL
9,Cc1ccc(COc2ccccc2C(=O)OCCn2c([N+](=O)[O-])cnc2C)cc1,12.5 µg/mL
10,Cc1cc(C)cc(COc2ccccc2C(=O)OCCn2c([N+](=O)[O-])cnc2C)c1,6.25 µg/mL
11,Cc1ncc([N+](=O)[O-])n1CCOC(=O)c1ccccc1OCc1ccc(C(C)C)cc1,6.25 µg/mL
12,COc1ccc(COc2ccccc2C(=O)OCCn2c([N+](=O)[O-])cnc2C)cc1,6.25 µg/mL

# Tested on: not listed separately
# Assay: Cytotoxicity against human macrophages after 24 hrs by MTT assay
# Type: cell-based, Macrophage
# Settings: not given
row,Compound,CC50 at 24 h
1,Cc1ncc([N+](=O)[O-])n1CCOC(=O)c1ccccc1OCc1ccccc1,231 µM
2,Cc1ncc([N+](=O)[O-])n1CCOC(=O)c1ccccc1OCc1ccccc1F,155 µM
3,Cc1ncc([N+](=O)[O-])n1CCOC(=O)c1ccccc1OCc1cccc(F)c1,124 µM
4,Cc1ncc([N+](=O)[O-])n1CCOC(=O)c1ccccc1OCc1ccc(F)cc1,157 µM
5,Cc1ncc([N+](=O)[O-])n1CCOC(=O)c1ccccc1OCc1ccccc1Cl,213 µM
6,Cc1ncc([N+](=O)[O-])n1CCOC(=O)c1ccccc1OCc1cccc(Cl)c1,188 µM
7,Cc1ncc([N+](=O)[O-])n1CCOC(=O)c1ccccc1OCc1ccc(Cl)cc1,168 µM
8,Cc1ncc([N+](=O)[O-])n1CCOC(=O)c1ccccc1OCc1ccc(Br)cc1,198 µM
9,Cc1ccc(COc2ccccc2C(=O)OCCn2c([N+](=O)[O-])cnc2C)cc1,140 µM
10,Cc1cc(C)cc(COc2ccccc2C(=O)OCCn2c([N+](=O)[O-])cnc2C)c1,252 µM
11,Cc1ncc([N+](=O)[O-])n1CCOC(=O)c1ccccc1OCc1ccc(C(C)C)cc1,272 µM
12,COc1ccc(COc2ccccc2C(=O)OCCn2c([N+](=O)[O-])cnc2C)cc1,239 µM

# Tested on: not listed separately
# Assay: Hemolytic activity in human erythrocytes assessed as hemoglobin release after 3 hrs by spectrophotometric analysis
# Type: ADME, cell-based, Erythrocyte
# Settings: read-out: LC50
row,Compound,HC50 at 3 h
1,Cc1ncc([N+](=O)[O-])n1CCOC(=O)c1ccccc1OCc1ccccc1,> 10 µM
2,Cc1ncc([N+](=O)[O-])n1CCOC(=O)c1ccccc1OCc1ccccc1F,> 10 µM
3,Cc1ncc([N+](=O)[O-])n1CCOC(=O)c1ccccc1OCc1cccc(F)c1,> 10 µM
4,Cc1ncc([N+](=O)[O-])n1CCOC(=O)c1ccccc1OCc1ccc(F)cc1,> 10 µM
5,Cc1ncc([N+](=O)[O-])n1CCOC(=O)c1ccccc1OCc1ccccc1Cl,> 10 µM
6,Cc1ncc([N+](=O)[O-])n1CCOC(=O)c1ccccc1OCc1cccc(Cl)c1,> 10 µM
7,Cc1ncc([N+](=O)[O-])n1CCOC(=O)c1ccccc1OCc1ccc(Cl)cc1,> 10 µM
8,Cc1ncc([N+](=O)[O-])n1CCOC(=O)c1ccccc1OCc1ccc(Br)cc1,> 10 µM
9,Cc1ccc(COc2ccccc2C(=O)OCCn2c([N+](=O)[O-])cnc2C)cc1,> 10 µM
10,Cc1cc(C)cc(COc2ccccc2C(=O)OCCn2c([N+](=O)[O-])cnc2C)c1,> 10 µM
11,Cc1ncc([N+](=O)[O-])n1CCOC(=O)c1ccccc1OCc1ccc(C(C)C)cc1,> 10 µM
12,COc1ccc(COc2ccccc2C(=O)OCCn2c([N+](=O)[O-])cnc2C)cc1,> 10 µM
